Assay results taken from ChEMBL document CHEMBL6153094, “Rationally designed highly amphipathic antimicrobial peptides demonstrating superior bacterial selectivity relative to the corresponding α-helix peptide” (Eur J Med Chem, 2025).
Converted amounts (≈) assume the structure as drawn.

Experiments:
Assay type in all cases: functional
Bacillus subtilis = experiment: Antimicrobial activity against Bacillus subtilis ATCC 23857 assessed as inhibition of visible bacterial growth incubated for 18 hrs by broth microdilution method
Pseudomonas aeruginosa [1] = experiment: Antimicrobial activity against gentamicin-resistant Pseudomonas aeruginosa ATCC 27853 assessed as inhibition of visible bacterial growth incubated for 18 hrs by broth microdilution method
Escherichia coli = experiment: Antimicrobial activity against Escherichia coli ATCC 25922 assessed as inhibition of visible bacterial growth incubated for 18 hrs by broth microdilution method
Klebsiella pneumoniae = experiment: Antimicrobial activity against Klebsiella pneumoniae ATCC 700603 assessed as inhibition of visible bacterial growth incubated for 18 hrs by broth microdilution method
Acinetobacter baumannii = experiment: Antimicrobial activity against Acinetobacter baumannii ATCC 19606 assessed as inhibition of visible bacterial growth incubated for 18 hrs by broth microdilution method
Staphylococcus aureus [2] = experiment: Resistance fold, ratio of MIC for Staphylococcus aureus ATCC 25923 measured after 8th passage to MIC for Staphylococcus aureus ATCC 25923 measured immediately
[3] = system: Staphylococcus epidermidis; experiment: Antimicrobial activity against Staphylococcus epidermidis ATCC 12228 assessed as inhibition of visible bacterial growth incubated for 18 hrs by broth-dilution method
Staphylococcus aureus [4] = experiment: Antimicrobial activity against Staphylococcus aureus ATCC 25923 assessed as inhibition of visible bacterial growth incubated for 18 hrs by broth-dilution method
Enterococcus faecalis = experiment: Antimicrobial activity against Enterococcus faecalis ATCC 29212 assessed as inhibition of visible bacterial growth incubated for 18 hrs by broth-dilution method
Pseudomonas aeruginosa [5] = experiment: Resistance fold, ratio of MIC for Pseudomonas aeruginosa ATCC 27853 measured after 10th passage to MIC for Pseudomonas aeruginosa ATCC 27853 measured immediately
Pseudomonas aeruginosa [6] = experiment: Antimicrobial activity against Pseudomonas aeruginosa ATCC 27853 assessed as inhibition of visible bacterial growth incubated for 18 hrs by broth microdilution method
Staphylococcus aureus [7] = experiment: Antimicrobial activity against gentamicin-resistant Staphylococcus aureus ATCC 25923 assessed as inhibition of visible bacterial growth incubated for 18 hrs by broth-dilution method

For `CN[C@@H]1[C@@H](O)[C@@H](O[C@@H]2[C@@H](O)[C@H](O[C@H]3O[C@H]([C@@H](C)NC)CC[C@H]3N)[C@@H](N)C[C@H]2N)OC[C@]1(C)O` [GENTAMICIN C1], the MIC (Bacillus subtilis) was < 1 µM, the MIC (Pseudomonas aeruginosa [1]) was 64 µM (≈ 30.6 µg/mL) and the MIC (Escherichia coli) was 2 µM (≈ 0.955 µg/mL). For the same compound, the MIC (Klebsiella pneumoniae) was 16 µM (≈ 7.64 µg/mL), the MIC (Acinetobacter baumannii) was 16 µM (≈ 7.64 µg/mL) and the “fold change (FC)” value (Staphylococcus aureus [2]) was 32. For the same compound, the MIC [3] was < 1 µM, the MIC (Staphylococcus aureus [4]) was < 1 µM and the MIC (Enterococcus faecalis) was 16 µM (≈ 7.64 µg/mL). For the same compound, the “fold change (FC)” value (Pseudomonas aeruginosa [5]) was 32, the MIC (Pseudomonas aeruginosa [6]) was < 1 µM and the MIC (Staphylococcus aureus [7]) was 32 µM (≈ 15.3 µg/mL).
